In US8518956B2, “1-(1-(2-ethoxyethyl)-3-ethyl-7-(4-methylpyridin-2-ylamino)-1H-pyrazolo[4,3-d]pyrimidin-5-yl) piperidine-4-carboxylic acid and salts thereof” (priority 2005, dated 2013) one finds IC50 data, which are given here for 52 compounds.

Broadly, the IC50 is the concentration that gives 50% inhibition.

For the experiment, the target named is T1, PDE5 enzyme (Homo sapiens, UniProt O76074).
T1 construct: The PDE5 enzyme isolated from human platelets; from tissue; host or cells: human platelets
Briefly: Method 1: Human Platelet PDE5 Enzyme Inhibition Scintillation Proximity Assay. It is filed as biochemical. Particulars: METHOD 1: PDE5 IC50, Table B, WO2004096810 examples. The text has this:
Method 1: Human Platelet PDE5 Enzyme Inhibition Scintillation Proximity Assay
An in vitro assay can be used to evaluate the inhibition of PDE5 enzyme activity by a test compound.
The PDE5 enzyme for use in the assay can be obtained from human platelets by appropriate modification of the method of Thompson, W J et al.; Biochemistry 18(23), 5228-5237, 1979, as described by Ballard S A et al.; J. Urology 159(6), 2164-2171, 1998. The PDE5 enzyme isolated from human platelets can be used to catalyze the hydrolysis of [^3H]cGMP (Amersham Biosciences) to 5′ nucleotide [^3H]GMP. The [^3H]GMP binds to yttrium silicate SPA beads (Amersham Biosciences) and is detected by scintillation counting. More specifically, the effect of the test compound at different concentrations can be evaluated in the assay by contacting the compound with a fixed amount of PDE5 enzyme in the presence of substrate (cGMP or cAMP in a 3:1 ratio unlabelled to [^3H]-labeled). Scintillation counting can be used as described above to determine relative PDE5 enzyme activity. The inhibition of PDE5 enzyme activity is then calculated relative to total PDE5 enzyme activity of uninhibited controls.
PDE5 IC50 Assay: 96-well microtiter plate format
• Buffer A: 20 mM Tris-HCl, 5 mM MgCl2, pH 7.4 • Buffer B: 2 mg/ml BSA in Buffer A (enzyme buffer) • cGMP substrate: Final concentration of 500 nM in assay The amount of ^3H-labeled substrate added depends upon the specific activity of [^3H]cGMP, and the cGMP substrate is diluted with a 10 mM stock of cold cGMP in Buffer A for a final substrate concentration of 500 nM in the assay. • PDE enzyme: Prepared in Buffer B. The dilution factor is determined by enzyme activity. • SPA beads: 20 mg/ml suspension prepared in dH2O.
Stocks of standard and test compounds are prepared at 5 mM in 100% DMSO. The compound is serially diluted in a dilution plate using a 10-point ½ log dilution format. 2 μl of the compound dilution is added in duplicate to the wells of the assay plate. 2 μl of 100% DMSO are added to designated control wells. 25 μl of Buffer A are added to all wells. 25 μl of Buffer B are added to the negative control wells. 25 μl of enzyme are added to the remaining wells. 50 μl of substrate are added to each well. Plates are sealed and incubated for 60 minutes on a plate shaker at 30 C. 50 plof SPA beads are added to stop the reaction. The plates are again sealed and shaken for 15 minutes to allow the beads to bind the GMP product. The beads are allowed to settle for 30 minutes and then read on a NXT TopCount scintillation counter. Data are analyzed with a curve fitting application for plate-based screening. Percent inhibition in this assay is calculated as follows: Inhibition (%)=[(mean maximum−compound value/(mean maximum−mean minimum)]×100.
The IC50 value is determined from sigmoid dose-response curves of enzyme activity versus compound concentration.
(SPA uses beads or plates that emit light when radiolabelled molecules are held near them.)
Turning to `CCCc1nn(C)c2c(N[C@H]3CC[C@H](O)CC3)nc(N3CCNCC3)nc12` [WO2004096810 Example 126], the IC50 was determined as 2230 nM. That is a single-digit micromolar value.
For `CCCc1nn(C)c2c(NC3CCC(OC)CC3)nc(N3CCNCC3)nc12` (stereo not shown) [WO2004096810 Example 127] the value was 7580 nM; for `CCCc1nn(C)c2c(Nc3cccc(C(=O)NC)n3)nc(N3CCNCC3)nc12` [WO2004096810 Example 128], 1390 nM; for `CCCc1nn(C)c2c(NC3CCCC3)nc(N3CCNCC3)nc12` [WO2004096810 Example 129], 139 nM.
To `CCCc1nn(C)c2c(N(C)C3CCN(C)CC3)nc(NC)nc12` [WO2004096810 Example 130] belongs more than 10000 nM; to `COCCn1nc(C)c2nc(N3C[C@H](C)NC[C@H]3C)nc(Nc3cc(C)ccn3)c21` [WO2004096810 Example 133], 4.45 nM; to `COCCn1nc(C)c2nc(N3C[C@H](C)NC[C@H]3C)nc(Nc3ccc(C)cn3)c21` [WO2004096810 Example 134], 6.57 nM.
The compound `COCCn1nc(C)c2nc(N3C[C@H](C)NC[C@H]3C)nc(Nc3ccncn3)c21` [WO2004096810 Example 135] showed an IC50 of 0.92 nM.
`CCOCCn1nc(C)c2nc(N3C[C@H](C)NC[C@H]3C)nc(Nc3cc(C)ccn3)c21` [WO2004096810 Example 136] showed an IC50 of 1.09 nM.
Compound `CCOCCn1nc(C)c2nc(N3C[C@H](C)NC[C@H]3C)nc(Nc3ccc(C)cn3)c21` [WO2004096810 Example 137] yielded an IC50 of 1.43 nM.
For `CCOCCn1nc(C)c2nc(N3C[C@H](C)NC[C@H]3C)nc(Nc3ccncn3)c21` [WO2004096810 Example 138] the value was 0.33 nM; for `CCOCCn1nc(CC)c2nc(N3C[C@H](C)NC[C@H]3C)nc(Nc3cc(C)ccn3)c21` [WO2004096810 Example 139], 0.55 nM; for `CCOCCn1nc(CC)c2nc(N3C[C@H](C)NC[C@H]3C)nc(Nc3ccc(C)cn3)c21` [WO2004096810 Example 140], 1.95 nM.
To `CCOCCn1nc(CC)c2nc(N3C[C@H](C)NC[C@H]3C)nc(Nc3ccncn3)c21` [WO2004096810 Example 141] belongs 0.15 nM; to `COCCn1nc(C)c2nc(N3C[C@@H](C)NC[C@@H]3C)nc(Nc3cc(C)ccn3)c21` [WO2004096810 Example 142], 22.7 nM; to `COCCn1nc(C)c2nc(N3C[C@@H](C)NC[C@@H]3C)nc(Nc3ccc(C)cn3)c21` [WO2004096810 Example 143], 81.2 nM.
For `COCCn1nc(C)c2nc(N3C[C@@H](C)NC[C@@H]3C)nc(Nc3ccncn3)c21` [WO2004096810 Example 144] the value was 5.34 nM; for `CCOCCn1nc(C)c2nc(N3C[C@@H](C)NC[C@@H]3C)nc(Nc3cc(C)ccn3)c21` [WO2004096810 Example 145], 7.15 nM; for `CCOCCn1nc(C)c2nc(N3C[C@@H](C)NC[C@@H]3C)nc(Nc3ccc(C)cn3)c21` [WO2004096810 Example 146], 32.1 nM.
As to `CCOCCn1nc(C)c2nc(N3C[C@@H](C)NC[C@@H]3C)nc(Nc3ccncn3)c21` [WO2004096810 Example 147], the IC50 worked out at 2.46 nM.
`CCOCCn1nc(CC)c2nc(N3C[C@@H](C)NC[C@@H]3C)nc(Nc3cc(C)ccn3)c21` [WO2004096810 Example 148] registered a half-maximal inhibitory concentration (IC50) of 4.39 nM.
For the compound `CCOCCn1nc(CC)c2nc(N3C[C@@H](C)NC[C@@H]3C)nc(Nc3ccc(C)cn3)c21` [WO2004096810 Example 149], the IC50 amounted to 34.8 nM.
For `CCOCCn1nc(CC)c2nc(N3C[C@@H](C)NC[C@@H]3C)nc(Nc3ccncn3)c21` [WO2004096810 Example 150] the value was 1.83 nM.
To `CCc1nn(CCOC)c2c(Nc3ccc(C)cn3)nc(N3CCNCC3)nc12` [WO2004096810 Example 151] belongs 22 nM; to `CCc1nn(CCOC)c2c(Nc3cc(C)ccn3)nc(N3CCNCC3)nc12` [WO2004096810 Example 152], 12.1 nM.
`CCc1nn(CCOC)c2c(Nc3cc(C)ccn3)nc(NCCn3cccn3)nc12` [WO2004096810 Example 153]: half-maximal inhibition (IC50) was put at 19.5 nM.
For `CCc1nn(CCOC)c2c(Nc3cc(C)ccn3)nc(N[C@H](C)CO)nc12` [WO2004096810 Example 154] the value was 12.6 nM; for `COCCn1nc(C)c2nc(N(C)[C@@H]3CCN(C)C3)nc(Nc3cc(C)ccn3)c21` [WO2004096810 Example 155], 13.4 nM.
`CCOCCn1nc(C)c2nc(N(C)[C@@H]3CCN(C)C3)nc(Nc3cc(C)ccn3)c21` [WO2004096810 Example 156] came in with an IC50 of 1.8 nM.
For `CCOCCn1nc(C)c2nc(N(C)[C@@H]3CCN(C)C3)nc(Nc3ccncn3)c21` [WO2004096810 Example 157] the value was 16.7 nM; for `CCOCCn1nc(CC)c2nc(N(C)[C@@H]3CCN(C)C3)nc(Nc3cc(C)ccn3)c21` [WO2004096810 Example 158], 0.71 nM.
`CCOCCn1nc(CC)c2nc(N(C)[C@@H]3CCN(C)C3)nc(Nc3ccc(C)cn3)c21` [WO2004096810 Example 159]: the IC50 came to 16.3 nM.
For `CCOCCn1nc(CC)c2nc(N(C)[C@@H]3CCN(C)C3)nc(Nc3ccncn3)c21` [WO2004096810 Example 160] the value was 7.22 nM; for `CCOCCn1nc(C)c2nc(N(C)[C@H]3CCN(C)C3)nc(Nc3cc(C)ccn3)c21` [WO2004096810 Example 161], 0.5 nM; for `CCOCCn1nc(CC)c2nc(N(C)[C@H]3CCN(C)C3)nc(Nc3cc(C)ccn3)c21` [WO2004096810 Example 162], 0.24 nM.
To `COCCn1nc(C)c2nc(N3CCNCC3)nc(Nc3cc(C)ccn3)c21` [WO2004096810 Example 165] belongs 10.5 nM; to `Cc1ccnc(Nc2nc(N3CCNCC3)nc3c(C)nn(CC4CCCO4)c23)c1` (stereo not shown) [WO2004096810 Example 166], 11.5 nM.
For `Cc1ccnc(Nc2nc(N3CCNCC3)nc3c(C)nn(Cc4ccccn4)c23)c1` [WO2004096810 Example 167] the value was 2.95 nM; for `Cc1ccnc(Nc2nc(N3CCNCC3)nc3c(C)nn(CC4CCCCO4)c23)c1` (stereo not shown) [WO2004096810 Example 168], 0.81 nM.
Turning to `Cc1ccnc(Nc2nc(N3CCNCC3)nc3c(C)nn(CC(F)(F)F)c23)c1` [WO2004096810 Example 170], the IC50 was 2100 nM.
`Cc1ccnc(Nc2nc(N3CCNCC3)nc3c(C)n(CC4CC4)nc23)c1` [WO2004096810 Example 173]: the IC50 was determined as 396 nM.
To `Cc1ccnc(Nc2nc(N3CCNCC3)nc3c(C)n(CCC(C)C)nc23)c1` [WO2004096810 Example 174] belongs 432 nM; to `Cc1ccnc(Nc2nc(N3CCNCC3)nc3c(C)n(Cc4ccccn4)nc23)c1` [WO2004096810 Example 176], 274 nM; to `Cc1ccnc(Nc2nc(N3CCNCC3)nc3c(C)n(CC4CCC4)nc23)c1` [WO2004096810 Example 177], 535 nM.
For `COCCn1nc(C(C)C)c2nc(N3CCNCC3)nc(Nc3ccc(C)cn3)c21` [WO2004096810 Example 179] the value was 18.3 nM; for `CCc1nn(CCOC)c2c(Nc3cc(C)n[nH]3)nc(N3CCNCC3)nc12` [WO2004096810 Example 180], 341 nM.
For `CCOCCn1nc(CO)c2nc(N(C)CC)nc(Nc3cc(C)ccn3)c21` [WO2004096810 Example 181] the value was 0.39 nM; for `CCOCCn1nc(CO)c2nc(N(C)C)nc(Nc3cc(C)ccn3)c21` [WO2004096810 Example 182], 4.03 nM.
Compound `CCOCCn1nc(COC)c2nc(N(C)C)nc(Nc3cc(C)ccn3)c21` [WO2004096810 Example 185] yielded a half-maximal inhibitory concentration (IC50) of 1.3 nM.
For `CCOCCn1nc(COCC)c2nc(N(C)C)nc(Nc3cc(C)ccn3)c21` [WO2004096810 Example 188] the value was 0.47 nM; for `CCOCCn1nc(C)c2nc(N(C)[C@H]3CCN(C)C3)nc(Nc3ccncn3)c21` [WO2004096810 Example 191], 0.24 nM.
To `CCOCCn1nc(CC)c2nc(N(C)[C@H]3CCN(C)C3)nc(Nc3ccc(C)cn3)c21` [WO2004096810 Example 192] belongs 3.06 nM.
